Source: US20220016080A1, “COMPOUNDS THAT SELECTIVELY AND EFFECTIVELY INHIBIT HAKAI-MEDIATED UBIQUITINATION, AS ANTI-CANCER DRUGS” (FUNDACIÓN PROFESOR NOVOA SANTOS, priority 2018, published 2022)

Legend:
LoVo cells = assay: Western blotting of EMT markers, LoVo; type: cell-based; details: 48 h
Method: (§1) For western blot analysis, cells were treated with the indicated inhibitors for 48 h and the whole cell extracts were obtained as described previously. Twenty micrograms of lysates were resolved on a 10% polyacrilamide SDS-PAGE followed by western blot analysis performed as previously described. For immunofluorescence assays cells were grown for 24 h on glass coverslips and treated with the indicated inhibitors for 48 h. Cells were fixed with 4% PFA for 15 min, permeabilized with 0.5% […] and incubated with E-cadherin antibody for 2 h. Coverslips were incubated with fluorescein-tagged secondary antibody (Dakopatts, Sweden) for […]. Finally coverslips were mounted with ProLong Gold antifade reagent (LifeTech, UK) and images were taken in epifluorescence microscope (Olympus) using 40× objective.

HT29 cells = assay: Migration assay, HT29; type: cell-based; details: HT-29; treated 48 h
Method: For invasion assays, cells were treated with Hakin-1 or DMSO as vehicle for 48 h using 1% FBS during the last 24 hours. 3×10^5 MDCK, MDCK-Hakai or LoVo cells were seeded in a cell invasion chamber (Cell invasion assaykit, Chemicon International) containing medium with 2% FBS. After 72 hours for MDCK and MDCK-Hakai Invasive and 16 h for LoVo cells, invasive cells invaded that reach the lower chamber containing 30% FBS were fixed and stained with crystal violet (Sigma Aldrich, St Louis, Mo.) following the manufacturer's specifications. For migration assays, HT29 cells were cultured with Hakin-1 or DMSO as vehicle for 48 h, using medium without serum the last 24 h. In the cell migration chamber were seeded 3×10^5 HT29 cells (Cell migration kit, Millipore, Bedford, Mass.) containing medium without serum. After 16 h, migrated cells in the lower chamber containing serum with 30% FBS were stained with crystal violet and counted following the manufacturer's specifications. For both invasion and migration assays cells were counted in five fields photographed with an Olympus microscope using a 20× objective, experiments were performed in triplicates for each condition and the assays were repeated at least three times. Results are expressed as mean±SD.

HT-29 cells [1] = assay: Immunofluorescence of E-cadherin, HT-29; type: cell-based; details: 48 h
Method: as §1

[2] = target: T1, E3 ubiquitin-ligase Hakai (Mus musculus, UniProt Q9JIY2); assay: Hakai-dependent ubiquitination of the E-cadherin complex (immunoprecipitation, 293T cells); type: cell-based; details: 293T cells transfected with Flag-Hakai, myc-E-cadherin, v-Src, HA-ubiquitin; IP with anti-E-cadherin
T1 construct: expressed in transfected cells; host or cells: HEK293T (293) cells, co-transfected with v-Src and HA-ubiquitin, and in A3 also with myc-E-cadherin
T1 sequence (Q9JIY2 1-491): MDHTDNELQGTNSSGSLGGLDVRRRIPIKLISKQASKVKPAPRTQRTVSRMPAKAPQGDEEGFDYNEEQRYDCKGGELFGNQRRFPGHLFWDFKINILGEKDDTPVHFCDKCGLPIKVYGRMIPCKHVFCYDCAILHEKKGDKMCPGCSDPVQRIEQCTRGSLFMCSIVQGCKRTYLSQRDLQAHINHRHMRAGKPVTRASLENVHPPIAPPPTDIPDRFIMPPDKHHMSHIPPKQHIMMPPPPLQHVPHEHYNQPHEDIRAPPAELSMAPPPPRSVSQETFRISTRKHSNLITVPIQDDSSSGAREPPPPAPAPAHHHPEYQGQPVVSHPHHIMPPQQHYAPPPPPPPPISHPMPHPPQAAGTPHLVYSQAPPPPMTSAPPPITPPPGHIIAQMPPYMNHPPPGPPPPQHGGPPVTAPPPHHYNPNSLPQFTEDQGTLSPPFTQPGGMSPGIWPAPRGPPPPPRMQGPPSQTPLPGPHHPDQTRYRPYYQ
Method: For immunoprecipitation experiments, 293 cells were transfected with 3 μg Src, 4 μg Flag-Hakai, and 2 μg HA-ubiquitin and 3 μg E-cadherin with Lipofectamin 2000 (Invitrogen, UK). 24 h after transfection, cells were lysed for 20 min in 1 ml of 1% Triton X-100 lysis buffer (20 mM Tris-HCl pH 7.5, 150 mM NaCl and 1% Triton X-100) containing 10 μg/ml leupeptin, 10 μg/ml aprotinin and 1 mM phenylmethanesulphonyl fluoride (PMSF), supplemented with 10 mM N-ethylmaleimide and 2.5 mM sodium orthovanadate. After centrifugation at 18.000 g for 10 min, the supernatants were immunoprecipitated for 2 h with 2 μg of anti-E-cadherin antibody bound to 60 μl of protein G PLUS-Agarose beads, followed by SDS-polyacrylamide gel electrophoresis (PAGE) and western blotting with the indicated antibodies as previously reported.

HT-29 cells [3] = assay: Western blotting of EMT markers, HT-29; type: cell-based; details: 48 h
Method: as §1

[4] = tested on: non-transformed epithelial MDCK cells; assay: BrdU proliferation assay, MDCK; type: cell-based; details: 48 h
Method: (§2) For BrdU assays, 1×10^4 of indicated cells were plated per well into a 96-well plate. After 24 h, cells were treated with the indicated inhibitors for 48 h. Three independent experiments were plated with six replicates per each condition. Cells were treated with […] BrdU for 2 h. BrdU incorporation into newly synthesized DNA was measured using a cell proliferation colorimetric immunoassay kit according to the manufacturer's instructions (Roche, Switzerland). Results are expressed as mean±S.D. Results are represented as percentage of positive cells (mean±S.D) of three independent experiments.

Hakai-MDCK cells = assay: BrdU proliferation assay, Hakai-MDCK; type: cell-based; details: 48 h
Method: as §2

breast cancer MCF7 cell = assay: BrdU proliferation assay, MCF7; type: cell-based, human; details: 48 h
Method: as §2

[5] = tested on: normal epithelial MDCK cell line; assay: MTT cell viability assay, MDCK; type: cell-based; details: normal epithelial MDCK compared to Hakai-MDCK; 72 h
Method: For cytotoxicity assays, 1×10^4 cells were seeded per well into a 96-well plate. After 24 h cells were treated with the indicated inhibitors for 72 h and a MTT colorimetric cell viability assay was performed following manufacturer's instructions (Sigma Aldrich, St Louis, Mo.). Absorbance was measured at 570 and 630 nm using a Multiskan Plus Reader (Nanoquant Infinite M200 Tecan Trading AG, Switzerland). Dose-response curves were designed with Graph Pad Prism Software and the half-maximal inhibitory concentration (IC50) values were calculated. Represented data are the mean±SEM of at least three independent experiments with six replicates per condition.

`O=C(O)c1ccc(-n2nnnc2SCC(=O)c2ccc([N+](=O)[O-])cc2)cc1` [Hakin-1, 4-(5-{[2-(4-nitrophenyl)-2-oxoethyl]thiol}-1H-tetrazol-1-yl)benzoic acid] was tested, and the “EMT markers (western blotting)” value (LoVo cells) was “confirmed these results”, the cell migration (HT29 cells) was “important reduction of cell migration” and the “E-cadherin levels at cell-cell contacts (immunofluorescence)” value (HT-29 cells [1]) was “significant increase E-cadherin levels at cell-cell contacts”. For the same molecule, the “Hakai-dependent ubiquitination of E-cadherin complex” value [2] was “reduction of Hakai-dependent ubiquitination of E-cadherin complex”, the “Cortactin expression levels (western blotting)” value (HT-29 cells [3]) was “increase expression levels” and the “E-cadherin levels (western blotting)” value (HT-29 cells [3]) was “increase E-cadherin levels”. The “mesenchymal Vimentin marker (western blotting)” value (HT-29 cells [3]) was “reduced”, the “cell proliferation (BrdU)” value [4] was “no effect was detected” and the “cell proliferation (BrdU)” value (Hakai-MDCK cells) was “suppress proliferation”. The “cell proliferation (BrdU)” value (breast cancer MCF7 cell) was “inhibits cell proliferation” and the “sensitivity to treatment (cell viability, MTT)” value [5] was “more resistant”.
